Data set [1] has as its system LPS-treated human peripheral blood monocytes. The data set is described as follows: LPS-induced cytokine release in human monocytes enriched by negative selection. It counts as cell-based. Particulars: for TNFα release: concentrations up to 50 μM. From the text:
Preparation of Peripheral Blood Cells: Human peripheral blood was collected in sodium heparin (IRB#12-200A) or obtained as Leukopaks from New York Blood Center (New York, N.Y.). Mononuclear cells were isolated by density gradient centrifugation in Ficoll-Paque Plus (GE Healthcare; Pittsburgh, Pa.). Monocytes were either purified by two-hour adherence to Primaria culture plates (Corning Life Sciences; Corning, N.Y.) or enriched by negative magnetic selection using Monocyte Isolation Kit II (Miltenyi Biotech; Auburn, Calif.). All monocyte preps were cultured in RPMI supplemented with 10% human AB serum, 100 units/mL penicillin-streptomycin, and 2 mM L-glutamine and used within 24 hours. Macrophages were differentiated from adherence-purified monocytes by incubation with 10 ng/mL human M-CSF (Sigma) for seven days, with media replenishment performed on days 3 and 5.
Cytokine Production Assays: For LPS-induced cytokine release, negative selection-enriched monocytes (human) or mixed peripheral blood leukocytes (murine) were plated at a density of 2×10^5 cells/mL in 96-well plates. Cells were pre-treated with MIF inhibitors in 0.1% DMSO (final) for 1 hour before stimulation with LPS from E. coli R515 (Axxora; Farmingdale, N.Y.): 24 hours for human cells, 5 hours for murine cells. Cell-free supernatants were collected and stored at −80° C. for cytokine determinations by ELISA; 1:2 dilutions were used for TNFα and 1:3 dilutions for IL-8 and MCP-1.

The conditions of data set [2]: early communications; cited from earlier work.
Data set [3] relates to C57/BL6 and MIF−/− mice, LPS. Briefly: Non-lethal endotoxemia, serum TNFα. It counts as in vivo, mouse. Particulars: 90 minutes post-LPS, 20 mg/kg i.p. An excerpt: Animal Experiments: The Institutional Animal Care and Use Committee of the Feinstein Institute for Medical Research reviewed and approved all animal protocols prior to initiation of experiments. Male BALB/c mice were purchased from the Jackson Laboratory (Bar Harbor, Me.) and used for endotoxemia experiments at ages 8-10 weeks. MIF KO animals were maintained on a C57/BL6 NCr background from Charles River Laboratories (Stone Ridge, N.Y.); these animals were used alongside matched wild-type animals for endotoxemia experiments at ages 8-12 weeks.
Endotoxemia: Endotoxemia was induced by intraperitoneal injection of LPS from E. coli O111:B4 (Sigma). […] Blood was collected by cardiac puncture and allowed to clot 20 minutes at room temperature and 20 minutes at 4° C.; sera were isolated by centrifugation at 300×g for 10 minutes and stored at −20° C. for further analysis by TNFα ELISA (1:3 dilution).

In data set [4] the test system is adherence-purified human peripheral blood monocytes. Briefly: Glucocorticoid synergy in vitro, adherence-purified monocytes. It counts as cell-based. Particulars: LPS. How it is done: Glucocorticoid Synergy in vitro: The methods of Roger et al. and Kerschbaumer et al. were adapted for these experiments (17, 21). […] Cell-free supernatants were collected and analyzed immediately with a murine TNFα ELISA at a 1:10 dilution. THP-1 cells were plated at a density of 2×10^5 cells/well in a 96-well plate and used the same day with the same treatment conditions as RAW 264.7 cells, except that THP-1 cells were incubated with LPS for 16 hours prior to isolation of cell-free supernatants. Supernatants were analyzed using a human TNFα ELISA at a 1:10 dilution. Human peripheral blood mononuclear cells isolated by adherence (described above) were plated at a density of 2×10^5 cells/well in a 96-well plate and used the same day with the same treatment conditions as THP-1 cells. Supernatants were analyzed using a human TNFα ELISA at a 1:20 dilution. […] Cells were treated under the same conditions as THP-1 cells and supernatants were analyzed using a human TNFα ELISA at a 1:10 dilution.
For all above experiments, cytotoxicity was assessed using an MTT assay (1-2 hour incorporation); no significant cytotoxicity effects were observed under any treatment conditions unless otherwise noted.

In the next data set the test system is neonates pups with CDH. The data set is described as follows: Nitrofen congenital diaphragmatic hernia (CDH) model, neonate pups. It counts as in vivo. Particulars: vs Nitrofen group; for VGEF / eNOS phosphorylation: P<0.05.
Data set [5] deals with LPS-stimulated human peripheral blood monocytes. Particulars: cited from earlier work.
[6] abbreviates: 1 h pre-treatment, 1 ng/mL LPS 24 h.

As for `Oc1ccc(-c2cnc3ccccn23)cc1O` [Compound K-664.1], in data set [1] (setting [6]), the MCP-1 release result is listed as “stronger suppressors of MCP-1 than TNFα” and the TNFα release result is “moderate suppression”.
Regarding `CS(=O)(=O)Nc1cc2occ(NC=O)c(=O)c2cc1Oc1ccccc1` [Compound T-614, 3-formylamino-7-methylsulfonylamino-6-phenoxy-4H-1-benzopyran-4-one], the oral bioavailability result in data set [2] is given as “orally bioavailable”. In addition, in data set [3], the “serum TNFα, MIF−/− mice” value is “no significant effect”. Also, the “concentration at which TNFα is suppressed (as low as)” value in data set [4] is at most 10 µM.
Turning to `COC(=O)CC1CC(c2ccc(O)cc2)=NO1` (centres unmarked) [ISO-1], in data set [1] (setting [6]), the TNFα release entry is “moderate suppression”. In addition, in the data set on neonates pups with CDH, the “Arginase II” value is on record as “significantly lower”, the VGEF entry is reported as “significant increase” and the eNOS phosphorylation result was “significant increase”.
Turning to `CC(C)(C)COC(=O)CC1CC(c2ccc(O)c(F)c2)=NO1` (centres unmarked) [ISO-92], in data set [1] (setting [6]), the MCP-1 release entry was “stronger suppressors of MCP-1 than TNFα” and the TNFα release entry is given as “almost completely spared”. Besides, in the data set with neonates pups with CDH, the “Arginase II” value is listed as “significantly lower”, the VGEF result is given as “significant increase” and the eNOS phosphorylation entry is on record as “significant increase”.
Regarding `O=C(O/N=C/c1ccc(O)cc1)C1CCCCC1` [OXIM-11], the TNFα release result in data set [1] (setting [6]) is recorded as “almost completely spared”. For the same compound, in data set [1] (LPS-treated monocytes), the “suppression of the cytokines analyzed (TNFα, MCP-1, IL-8)” value is on record as “minimal suppression”.
`N[C@H](Cc1cc(I)c(Oc2cc(I)c(O)c(I)c2)c(I)c1)C(=O)O` [d-T4]: in data set [1] (setting [6]), the IL-8 release entry is given as “moderate suppression” and the TNFα release result is on record as “almost completely spared”.
As to `COc1ccc2c(c1)c(CC(=O)O)c(C)n2C(=O)c1ccc(Cl)cc1` [indomethacin], in data set [5], the IL-1β intracellular accumulation result is given as “increases intracellular accumulation” and the IL-1β release entry is given as “inhibits release”.
